Reference: US20260262643A1, “HERBICIDAL BENZOXAZINES” (FMC CORPORATION, priority 2022, published 2026)

How the values were obtained:
foxtail, giant = test: Test A preemergence; type: in vivo, Setaria faberi; settings: Setaria faberi, pre-emergence, 240 h, read-out: Plant response rating, Foxtail, Giant; for pest or weed control at 125 g/ha: 125 g ai/ha, visual injury after 10 days, 0 to 100 scale, 0 is no effect, 100 is complete control; for pest or weed control at 500 g/ha: 500 g ai/ha, 0 to 100 scale (0 no effect, 100 complete control), 10 days
Procedure, shortened: (§1)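 Weeds and crops in loam–sand blend were sprayed preemergence onto soil or postemergence at 2–10 cm (one- to two-leaf stage). Test chemicals were in a non-phytotoxic solvent with surfactant. After 10 days in the greenhouse, injury was rated visually against untreated controls on a 0 (no effect) to 100 (complete control) scale.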

wheat = test: Test A postemergence; type: in vivo, Triticum aestivum; settings: Triticum aestivum, post-emergence, 240 h, postemergence, 10 days, 0 to 100 scale (0 no effect, 100 complete control); for plant injury at 125 g/ha: 125 g ai/ha, read-out: Wheat plant response rating; for plant injury at 500 g/ha: 500 g ai/ha, visual injury, read-out: Plant response rating, Wheat
Procedure, shortened: as §1

oat, wild [1] = test: Test A postemergence; type: in vivo, Avena fatua; settings: Avena fatua, post-emergence, 240 h, postemergence, 10 days, 0 to 100 scale (0 no effect, 100 complete control); for pest or weed control at 125 g/ha: 125 g ai/ha, read-out: Oat, Wild plant response rating; for pest or weed control at 500 g/ha: 500 g ai/ha, visual injury, read-out: Plant response rating, Oat, Wild
Procedure, shortened: as §1

ragweed = test: Test A preemergence; type: in vivo, Ambrosia artemisiifolia; settings: Ambrosia artemisiifolia, pre-emergence, 240 h, read-out: Plant response rating, Ragweed; for pest or weed control at 125 g/ha: 125 g ai/ha, visual injury after 10 days, 0 to 100 scale, 0 is no effect, 100 is complete control; for pest or weed control at 500 g/ha: 500 g ai/ha, 0 to 100 scale (0 no effect, 100 complete control), 10 days
Procedure, shortened: as §1

pigweed, palmer [2] = test: Test A postemergence; type: in vivo, Amaranthus palmeri; settings: Amaranthus palmeri, post-emergence, 240 h, postemergence, 10 days, 0 to 100 scale (0 no effect, 100 complete control); for pest or weed control at 125 g/ha: 125 g ai/ha, read-out: Pigweed, Palmer plant response rating; for pest or weed control at 500 g/ha: 500 g ai/ha, visual injury, read-out: Plant response rating, Pigweed, Palmer
Procedure, shortened: as §1

kochia = test: Test A postemergence; type: in vivo, Bassia scoparia; settings: Bassia scoparia, post-emergence, 240 h, postemergence, 10 days, 0 to 100 scale (0 no effect, 100 complete control); for pest or weed control at 125 g/ha: 125 g ai/ha, read-out: Kochia plant response rating; for pest or weed control at 500 g/ha: 500 g ai/ha, visual injury, read-out: Plant response rating, Kochia
Procedure, shortened: as §1

corn = test: Test A preemergence; type: in vivo, Zea mays; settings: Zea mays, pre-emergence, 240 h; for Corn plant response rating (crop injury, 0 = no effect, 100 = complete kill) at 125 g/ha: 125 g ai/ha, visual injury after 10 days, 0 to 100 scale, 0 is no effect, 100 is complete control; for Corn plant response rating (crop injury, 0 = no effect, 100 = complete kill) at 500 g/ha: 500 g ai/ha, 0 to 100 scale (0 no effect, 100 complete control), 10 days
Procedure, shortened: as §1

soybean = test: Test A preemergence; type: in vivo, Glycine max; settings: Glycine max, pre-emergence, 240 h, read-out: Plant response rating, Soybean; for plant injury at 125 g/ha: 125 g ai/ha, visual injury after 10 days, 0 to 100 scale, 0 is no effect, 100 is complete control; for plant injury at 500 g/ha: 500 g ai/ha, 0 to 100 scale (0 no effect, 100 complete control), 10 days
Procedure, shortened: as §1

oat, wild [3] = test: Test A preemergence; type: in vivo, Avena fatua; settings: Avena fatua, pre-emergence, 240 h, read-out: Plant response rating, Oat, Wild; for pest or weed control at 125 g/ha: 125 g ai/ha, visual injury after 10 days, 0 to 100 scale, 0 is no effect, 100 is complete control; for pest or weed control at 500 g/ha: 500 g ai/ha, 0 to 100 scale (0 no effect, 100 complete control), 10 days
Procedure, shortened: as §1

rice = test: Test B flooded paddy test; type: in vivo, Oryza sativa; settings: Oryza sativa, 312 h; 250 g ai/ha, Flood, 13 days, 0 to 100 scale (0 no effect, 100 complete control); read-out: Plant response rating, Rice
Procedure, shortened: (§2)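 Application into standing water (3 cm above soil) at the two-leaf stage; flood depth held constant. Evaluation: day 13, visual comparison with controls, 0 = no injury, 100 = complete control.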

horseweed = test: Test A postemergence; type: in vivo, Erigeron canadensis; settings: Erigeron canadensis, post-emergence, 240 h, postemergence, 10 days, 0 to 100 scale (0 no effect, 100 complete control); for pest or weed control at 125 g/ha: 125 g ai/ha, read-out: Horseweed plant response rating; for pest or weed control at 500 g/ha: 500 g ai/ha, visual injury, read-out: Plant response rating, Horseweed
Procedure, shortened: as §1

barnyardgrass = test: Test B flooded paddy test; type: in vivo, Echinochloa crus-galli; settings: Echinochloa crus-galli, 312 h, 250 g ai/ha, Flood, 13 days, 0 to 100 scale (0 no effect, 100 complete control); read-out: Plant response rating, Barnyardgrass
Procedure, shortened: as §2

blackgrass = test: Test A postemergence; type: in vivo, Alopecurus myosuroides; settings: Alopecurus myosuroides, post-emergence, 240 h, postemergence, 10 days, 0 to 100 scale (0 no effect, 100 complete control); for pest or weed control at 125 g/ha: 125 g ai/ha, read-out: Blackgrass plant response rating; for pest or weed control at 500 g/ha: 500 g ai/ha, visual injury, read-out: Plant response rating, Blackgrass
Procedure, shortened: as §1

pigweed, palmer [4] = test: Test A preemergence; type: in vivo, Amaranthus palmeri; settings: Amaranthus palmeri, pre-emergence, 240 h, read-out: Plant response rating, Pigweed, Palmer; for pest or weed control at 125 g/ha: 125 g ai/ha, visual injury after 10 days, 0 to 100 scale, 0 is no effect, 100 is complete control; for pest or weed control at 500 g/ha: 500 g ai/ha, 0 to 100 scale (0 no effect, 100 complete control), 10 days
Procedure, shortened: as §1

Structure (SMILES) | pest or weed control at 125 g/ha (foxtail, giant) [%] | pest or weed control at 500 g/ha (foxtail, giant) [%] | plant injury at 125 g/ha (wheat) [%] | plant injury at 500 g/ha (wheat) [%] | pest or weed control at 125 g/ha (oat, wild [1]) [%] | pest or weed control at 500 g/ha (oat, wild [1]) [%] | pest or weed control at 125 g/ha (ragweed) [%] | pest or weed control at 500 g/ha (ragweed) [%] | pest or weed control at 125 g/ha (pigweed, palmer [2]) [%] | pest or weed control at 500 g/ha (pigweed, palmer [2]) [%] | pest or weed control at 125 g/ha (kochia) [%] | pest or weed control at 500 g/ha (kochia) [%] | Corn plant response rating (crop injury, 0 = no effect, 100 = complete kill) at 125 g/ha (corn) [%] | Corn plant response rating (crop injury, 0 = no effect, 100 = complete kill) at 500 g/ha (corn) [%] | plant injury at 125 g/ha (soybean) [%] | plant injury at 500 g/ha (soybean) [%] | pest or weed control at 125 g/ha (oat, wild [3]) [%] | pest or weed control at 500 g/ha (oat, wild [3]) [%] | plant injury at 250 g/ha (rice) [%] | pest or weed control at 125 g/ha (horseweed) [%] | other results
C[C@H]1CN(C(=O)c2cccc(-n3cnc(C4CCC4)n3)c2)c2cccc(Cl)c2O1 [Compound 93, [(2S)-8-Chloro-2,3-dihydro-2-methyl-4H-1,4-benzoxazin-4-yl][3-(3-cyclobutyl-1H-1,2,4-triazol-1-yl)phenyl]methanone] | 80 | 100 | 20 | 20 | 20 | 70 | 0 | 0 | 90 | 100 | 80 | 90 | 10 | 10 | 30 | 30 | 20 | 90 | 0 | 0 | pest or weed control at 500 g/ha (horseweed): 40%; pest or weed control at 250 g/ha (barnyardgrass): 0%; pest or weed control at 125 g/ha (blackgrass): 70%; pest or weed control at 500 g/ha (blackgrass): 90%; pest or weed control at 125 g/ha (pigweed, palmer [4]): 90%; pest or weed control at 500 g/ha (pigweed, palmer [4]): 100%
COc1ccc(-n2cnc(C(C)C)n2)cc1C(=O)N1C[C@H](C)Oc2c(Cl)cccc21 [Compound 84, [(2S)-8-chloro-2-methyl-2,3-dihydro-1,4-benzoxazin-4-yl]-[5-(3-isopropyl-1,2,4-triazol-1-yl)-2-methoxy-phenyl]methanone] | 100 | 100 | 40 | 50 | 90 | 90 | 70 | 100 | 90 | 100 | 90 | 90 | 20 | 20 | 90 | 100 | 90 | 90 | 0 | 40 | pest or weed control at 500 g/ha (horseweed): 50%; pest or weed control at 250 g/ha (barnyardgrass): 65%; pest or weed control at 125 g/ha (blackgrass): 70%; pest or weed control at 500 g/ha (blackgrass): 70%; pest or weed control at 125 g/ha (pigweed, palmer [4]): 100%; pest or weed control at 500 g/ha (pigweed, palmer [4]): 100%
